Data on two compounds can be found in patent US8377851B2, “Method of altering the alkaloid composition in poppy plants” (priority 2004, dated 2013).

Where two headings read alike, the source gives them in different places.

The subject of assay [1] is morphine crop. The arrangement: species or system Papaver somniferum. The note with it: in vivo.
The test system of assay [2] is morphine crop. Also noted: species or system Papaver somniferum. The note with it: in vivo. The source holds these as a separate data set.
The subject of assay [3] is morphine crop. Briefly: Example 29 field trial: methyl jasmonate, capsule/seed ratio and alkaloid assay.

With `O=C(O)CN(CCN(CC(=O)O)CC(=O)O)CC(=O)O` [EDTA], in the assay with morphine crop [1], the “CAPSULE/SEED RATIO” value is listed as 0.590 c, the CODEINE kg/ha came to 0.790 b kg/ha, the MORPHINE kg/ha is 32.97 a kg/ha and the ORIPAVINE kg/ha is reported as 0.618 c kg/ha. In the assay on morphine crop [1], the SEED kg/ha is recorded as 1960 a kg/ha, the “STRAW CODEINE %” value came out at 0.047 b %, the “STRAW MORPHINE %” value is on record as 1.98 a % and the “STRAW O'PAVINE %” value came out at 0.036 b %. Further, in the assay with morphine crop [1], the “STRAW THEBAINE %” value worked out at 0.139 c %, the STRAW kg/ha came to 1668 b kg/ha, the THEBAINE kg/ha was 2.350 c kg/ha and the YIELD t/ha is 3.63 ab t/ha.

As for `CC/C=C\CC1C(=O)CCC1CC(=O)OC` (centres unmarked) [METHYL JASMONATE, methyl jasmonate], in the assay with morphine crop [2], the “CAPSULE/SEED RATIO” value stood at 0.685 c, the CODEINE kg/ha was determined as 1.104 a kg/ha, the MORPHINE kg/ha is 19.99 b kg/ha and the ORIPAVINE kg/ha was found to be 7.853 c kg/ha. For the same compound, in the assay with morphine crop [2], the SEED kg/ha was 1886 bc kg/ha, the “STRAW CODEINE %” value turned out to be 0.059 a %, the “STRAW MORPHINE %” value is on record as 1.07 b % and the “STRAW O'PAVINE %” value is listed as 0.422 b %. Moreover, in the assay on morphine crop [2], the “STRAW THEBAINE %” value is on record as 1.028 c %, the STRAW kg/ha is listed as 1863 b kg/ha, the THEBAINE kg/ha was determined as 19.124 c kg/ha and the YIELD kg/ha is listed as 3.75 a kg/ha. In addition, in the assay on morphine crop [3] (METHYL JAS .15 L/ha at EF), the “CAPSULE/SEED RATIO” value turned out to be 0.575 a, the “STRAW CODEINE” value worked out at 0.064 b %, the “STRAW MORPHINE” value is recorded as 2.04 a % and the “STRAW O'PAVINE” value is 0.009 b %. In addition, in the assay with morphine crop [3] (METHYL JAS .15 L/ha at EF), the “STRAW THEBAINE” value came to 0.042 b %. Besides, in the assay with morphine crop [3] (METHYL JAS .15 L/ha at GCAPS), the “CAPSULE/SEED RATIO” value was determined as 0.577 a, the “STRAW CODEINE” value is 0.044 c %, the “STRAW MORPHINE” value came out at 2.01 a % and the “STRAW O'PAVINE” value is listed as 0.005 c %. In the assay on morphine crop [3] (METHYL JAS .15 L/ha at GCAPS), the “STRAW THEBAINE” value was found to be 0.033 c %. In the assay with morphine crop [3] (METHYL JAS .3 L/ha at EF), the “CAPSULE/SEED RATIO” value came out at 0.581 a, the “STRAW CODEINE” value was determined as 0.075 a %, the “STRAW MORPHINE” value was found to be 2.09 a % and the “STRAW O'PAVINE” value amounted to 0.011 a %. Further, the “STRAW THEBAINE” value in the assay on morphine crop [3] (METHYL JAS .3 L/ha at EF) turned out to be 0.051 a %. Also, in the assay on morphine crop [3] (METHYL JAS .3 L/ha at GCAPS), the “CAPSULE/SEED RATIO” value was 0.577 a, the “STRAW CODEINE” value was determined as 0.042 c %, the “STRAW MORPHINE” value is listed as 2.04 a % and the “STRAW O'PAVINE” value stood at 0.004 c %. The “STRAW THEBAINE” value in the assay on morphine crop [3] (METHYL JAS .3 L/ha at GCAPS) is 0.029 c %.
